Measurements: ChEMBL document CHEMBL2074415, “Expression and characterization of a functional rat liver Na+ bile acid cotransport system in COS-7 cells” (Am J Physiol, 1994)

Key:
Assay type in all cases: functional, cell-based
Settings in all cases: monkey, cos-7, 100 µM
[1] = molecular target: T1, Hepatic sodium/bile acid cotransporter (Rattus norvegicus, UniProt P26435); assay: TP_TRANSPORTER: inhibition of Taurocholate uptake (Taurocholate: 5 uM, UDCA: 100 uM) in Ntcp-expressing COS-7 cells
T1 sequence (P26435 whole entry): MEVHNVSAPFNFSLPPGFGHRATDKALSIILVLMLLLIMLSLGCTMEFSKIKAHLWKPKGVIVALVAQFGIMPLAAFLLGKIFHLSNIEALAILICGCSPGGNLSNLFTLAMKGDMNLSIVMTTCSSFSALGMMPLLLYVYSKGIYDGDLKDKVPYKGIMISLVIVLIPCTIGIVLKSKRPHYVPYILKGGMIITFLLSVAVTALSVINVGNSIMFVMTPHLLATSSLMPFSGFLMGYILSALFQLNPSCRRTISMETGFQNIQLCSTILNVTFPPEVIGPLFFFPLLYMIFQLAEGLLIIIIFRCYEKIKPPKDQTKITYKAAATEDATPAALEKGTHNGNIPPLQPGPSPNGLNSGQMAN

[2] = molecular target: T1, Hepatic sodium/bile acid cotransporter; assay: TP_TRANSPORTER: inhibition of Taurocholate uptake (Taurocholate: 5 uM, TUDC: 100 uM) in Ntcp-expressing COS-7 cells
[3] = molecular target: T1, Hepatic sodium/bile acid cotransporter; assay: TP_TRANSPORTER: inhibition of Taurocholate uptake (Taurocholate: 5 uM, CDCA: 100 uM) in Ntcp-expressing COS-7 cells

Q: With `C[C@H](CCC(=O)O)[C@H]1CC[C@H]2[C@@H]3[C@@H](O)C[C@@H]4C[C@H](O)CC[C@]4(C)[C@H]3CC[C@]12C` [URSODIOL] as the molecule, how does the Activity [1] read?
A: Its Activity is “inhibitor [(at a rough estimate) 45 % of control]”.

Q: How did the Activity [2] turn out when `C[C@H](CCC(=O)NCCS(=O)(=O)O)[C@H]1CC[C@H]2[C@@H]3[C@@H](O)C[C@@H]4C[C@H](O)CC[C@]4(C)[C@H]3CC[C@]12C` [TAURURSODIOL] was run?
A: The Activity was “inhibitor [(at a rough estimate) 25 % of control]”.

Q: Which Activity [3] does the source give for `C[C@H](CCC(=O)O)[C@H]1CC[C@H]2[C@@H]3[C@H](O)C[C@@H]4C[C@H](O)CC[C@]4(C)[C@H]3CC[C@]12C` [CHENODIOL] here?
A: Its Activity is “inhibitor [(at a rough estimate) 25 % of control]”.
